Measurements reported in patent US10393730B2, “Energy malnutrition evaluation for liver disease test subject” (OTSUKA PHARMACEUTICAL CO., LTD., priority 2014, dated 2019).

Assays:
[1] = non-fasting period and fasting period, control group versus liver cirrhosis model group, 2 mL/kg i.v., 0-120 minutes
Procedure: CCl4 (olive oil: CCl4=1:1) was administered subcutaneously to the dorsal regions of male SD rats (10 weeks of age: n=3) in an amount of 2 mL/kg twice a week for 12 weeks, thereby creating liver cirrhosis model rats. With a biogas analysis device (product name: Oxymax, Columbus Instruments), respiratory quotient and energy consumption of untreated rats (control group) and liver cirrhosis model rats (liver cirrhosis model group) were measured and calculated according to the instructions of the device.
Further, both the untreated rats and the liver cirrhosis model rats were fed from 19:00 on Day 1 of the test to 13:00 on Day 3, and were fasted from 13:00 on Day 3 to 13:00 on Day 4, as shown in FIG. 1 shown later. During the non-fasting period, the rats were allowed free access to feed (product name: CRF-1, Oriental Yeast Co., Ltd.). […]
The above-prepared ^13C-palmitic acid-containing composition was individually intravenously administered to the liver cirrhosis model rats and untreated rats prepared in the above Reference Example in an amount of 2 mL/kg (n=3). […] Expired air was collected at time points between before administration (0 minutes) to 120 minutes after the administration of ^13C-palmitic acid-containing composition. Δ^13C(‰) was measured and determined using an expired air analysis mass spectrometer (ABCA: product of Sercon).

[2] = parameters: species or system male SD rats (liver cirrhosis model rats and untreated rats); conditions: rat, in vivo, iv
Procedure: U-^13C-glucose (MW: 186, Cambridge Isotope Laboratories, Inc.) was dissolved in a physiological saline solution at a concentration of 50 μmol/ml, thereby preparing a ^13C-glucose-containing composition.

Row | SMILES | expired air reaction (Δ^13C(‰)) [1] | expired air reaction (Δ^13C(‰)), day versus night [2]
1 | CCCCCCCCCCCCCCC[13C](=O)[O-].[Na+] [1-^13C-sodium palmitate] | showed similar transitions in the control group and the liver cirrhosis model group | 
2 | OC[C@H]1OC(O)[C@H](O)[C@@H](O)[C@@H]1O (some centres unmarked) [^13C-glucose-containing composition, U-^13C-glucose] |  | a significant difference in the expired air reaction (Δ^13C(‰)) was not observed between day and night
